# Test results published in patent US10450299B2, “Substituted quinazoline derivatives as DNA methyltransferase inhibitors” (Pierre Fabre Medicament, priority 2015, dated 2019).
# What was measured:
# [1] = test system: KG-1 human leukemia cells; assay: Anti-proliferative activity on KG-1 (ATPLite cell viability); format: cell-based; conditions: KG-1 cells
# Method: Anti-Proliferative Activity. (on KG-1)
# KG-1 human leukemia cells were obtained from the ATCC (USA) and cultivated in RPMI 1640 medium (with HEPES and Glutamine, BE12-115F, Lonza, France) supplemented with, respectively, 20% and 15% foetal calf serum (Lonza, France), at 37° C. and under 5% CO2. To measure the anti-proliferative properties of tested molecules, 2×10^4 cells are seeded at day 0 in a 96 wells plate. The compounds to be tested, stored at −20° C. as 10^−2 M stock solution in 100% DMSO, are freshly diluted on day 1 in RPMI 1640 medium, before adding a dose range of 3.2 nM to 10 μM to the cells. This treatment is repeated on day 2 and 3, and on day 4 cell viability is assessed using the ATPLite™ kit from Perkin (ATPlite™ 1 Step Luminescence Assay System, ref 3016739), following the provider instructions. The raw data are analyzed with GraphPad Prism software (v4.03) to generate EC50 values corresponding to the compound concentrations giving 50% reduction in cell viability. The values presented are the mean results of at least two independent experiments. […]
# At the end of the experiment, cell viability was evaluated by determining the level of ATP released by viable cells.
# EC50 values were determined with curve fitting analysis method (non linear regression model with a sigmoid dose response, variable Hill slope coefficient) provided by the Prism Software (GraphPad). Results were expressed as average EC50 values (concentration of tested compound that inhibits 50% of the maximum effect for the considered compound).
# [2] = test system: luciferase reporter gene under the control of the partially methylated CMV promoter in KG-1 cell line; assay: Gene expression (CMV-Luc reactivation) in KG-1 cells; format: cell-based, human; conditions: 24 h, induction factor vs DMSO control, mean of 3 experiments ± standard error
# Method: Gene Expression. (CMV-Luc Reactivation)
# KG-1 cell line, stably transfected with the luciferase Firefly (Luc+ from pGL3 by Promega) reporter gene under the control of the CMV promoter (from pEGFP-N1 by Clontech) partially methylated (50%), is seeded at 20,000 cell per well in 96-well plate. After 24 h of incubation in the presence of the compounds or the solvant DMSO, the induction of the promoter is measured by quantification of luciferase with the Brite-lite™ assay system (Perkin Elmer) according to the manufacturer protocol. The luminescence is measured on EnVision™ Multilabel Plate Reader (Perkin Elmer) and the data are expressed in induction factor compared to the DMSO control condition.
# [3] = biological target: T1, human C-terminal DNMT3A (a.a. 623-908) (Homo sapiens, UniProt Q9Y6K1); assay: DNMT3A assay (restriction-based fluorescence assay); format: biochemical
# T1 construct: The human C-terminal DNMT3A (a.a. 623-908); made in house
# T1 sequence (Q9Y6K1 627-912): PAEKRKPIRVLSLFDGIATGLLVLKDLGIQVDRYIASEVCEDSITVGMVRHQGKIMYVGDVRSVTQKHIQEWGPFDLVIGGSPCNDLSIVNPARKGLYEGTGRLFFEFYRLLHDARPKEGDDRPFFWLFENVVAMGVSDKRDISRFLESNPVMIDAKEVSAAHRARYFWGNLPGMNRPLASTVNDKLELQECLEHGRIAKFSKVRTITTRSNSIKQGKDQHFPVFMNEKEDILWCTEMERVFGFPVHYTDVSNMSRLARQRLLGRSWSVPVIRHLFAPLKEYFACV
# Text: DNMT3A enzyme inhibition was adapted from the restriction-based fluorescence assay protocol described in Ceccaldi et al. (ChemBioChem 2011, 12, 1337-45). Briefly, a 5′-labelled biotin oligonucleotide is hybridized to its complementary strand labelled with 6-carboxyfluorescein at the 3′-end into a 384 well microplate (black Optiplates; Perkin Elmer) pre-coated with avidin. The duplex contains a unique CpG site overlapping with a restriction site of a methylation sensitive restriction enzyme. The human C-terminal DNMT3A (a.a. 623-908), produced as described in Gros et al. (Nucleic Acids Research 2013 41(19):e185), was added in each well (200 ng/well) and mixed with the chemical compounds at desired concentrations and freshly prepared AdoMet (20 μM final concentration) to start the reaction in a total volume of 50 μL. After 1 hour incubation at 37° C. each well were washed three times with PBS, Tween-20 0.05%, NaCl (500 mM) and three more times with PBST. Specific fluorescent signals were detected with the methylation-sensitive restriction enzyme HpyCH4IV (NEB) as described and measured on a Perkin Elmer Envision detector. The percentage of inhibition is reported. The formula used to calculate the percentage of inhibition is [(X−Y)/X]×100, where X is the signal determined in the absence of the inhibitor and Y is the signal obtained in the presence of the inhibitor. The concentration at which 50% of efficacy of inhibition is observed (EC50) was determined by analysis of a concentration range of the tested compound in triplicates. The non-linear regression fittings with sigmoidal dose-response (variable slope) were performed with GraphPad Prism 4.03 (GraphPad Software).
# [4] = biological target: T2, His-DNMT1 (182 kDa, human) (Homo sapiens, UniProt P26358); assay: DNMT1 assay (tritiated SAM Flashplate methylation assay); format: biochemical
# T2 construct: His; made in house
# T2 sequence (P26358 whole entry): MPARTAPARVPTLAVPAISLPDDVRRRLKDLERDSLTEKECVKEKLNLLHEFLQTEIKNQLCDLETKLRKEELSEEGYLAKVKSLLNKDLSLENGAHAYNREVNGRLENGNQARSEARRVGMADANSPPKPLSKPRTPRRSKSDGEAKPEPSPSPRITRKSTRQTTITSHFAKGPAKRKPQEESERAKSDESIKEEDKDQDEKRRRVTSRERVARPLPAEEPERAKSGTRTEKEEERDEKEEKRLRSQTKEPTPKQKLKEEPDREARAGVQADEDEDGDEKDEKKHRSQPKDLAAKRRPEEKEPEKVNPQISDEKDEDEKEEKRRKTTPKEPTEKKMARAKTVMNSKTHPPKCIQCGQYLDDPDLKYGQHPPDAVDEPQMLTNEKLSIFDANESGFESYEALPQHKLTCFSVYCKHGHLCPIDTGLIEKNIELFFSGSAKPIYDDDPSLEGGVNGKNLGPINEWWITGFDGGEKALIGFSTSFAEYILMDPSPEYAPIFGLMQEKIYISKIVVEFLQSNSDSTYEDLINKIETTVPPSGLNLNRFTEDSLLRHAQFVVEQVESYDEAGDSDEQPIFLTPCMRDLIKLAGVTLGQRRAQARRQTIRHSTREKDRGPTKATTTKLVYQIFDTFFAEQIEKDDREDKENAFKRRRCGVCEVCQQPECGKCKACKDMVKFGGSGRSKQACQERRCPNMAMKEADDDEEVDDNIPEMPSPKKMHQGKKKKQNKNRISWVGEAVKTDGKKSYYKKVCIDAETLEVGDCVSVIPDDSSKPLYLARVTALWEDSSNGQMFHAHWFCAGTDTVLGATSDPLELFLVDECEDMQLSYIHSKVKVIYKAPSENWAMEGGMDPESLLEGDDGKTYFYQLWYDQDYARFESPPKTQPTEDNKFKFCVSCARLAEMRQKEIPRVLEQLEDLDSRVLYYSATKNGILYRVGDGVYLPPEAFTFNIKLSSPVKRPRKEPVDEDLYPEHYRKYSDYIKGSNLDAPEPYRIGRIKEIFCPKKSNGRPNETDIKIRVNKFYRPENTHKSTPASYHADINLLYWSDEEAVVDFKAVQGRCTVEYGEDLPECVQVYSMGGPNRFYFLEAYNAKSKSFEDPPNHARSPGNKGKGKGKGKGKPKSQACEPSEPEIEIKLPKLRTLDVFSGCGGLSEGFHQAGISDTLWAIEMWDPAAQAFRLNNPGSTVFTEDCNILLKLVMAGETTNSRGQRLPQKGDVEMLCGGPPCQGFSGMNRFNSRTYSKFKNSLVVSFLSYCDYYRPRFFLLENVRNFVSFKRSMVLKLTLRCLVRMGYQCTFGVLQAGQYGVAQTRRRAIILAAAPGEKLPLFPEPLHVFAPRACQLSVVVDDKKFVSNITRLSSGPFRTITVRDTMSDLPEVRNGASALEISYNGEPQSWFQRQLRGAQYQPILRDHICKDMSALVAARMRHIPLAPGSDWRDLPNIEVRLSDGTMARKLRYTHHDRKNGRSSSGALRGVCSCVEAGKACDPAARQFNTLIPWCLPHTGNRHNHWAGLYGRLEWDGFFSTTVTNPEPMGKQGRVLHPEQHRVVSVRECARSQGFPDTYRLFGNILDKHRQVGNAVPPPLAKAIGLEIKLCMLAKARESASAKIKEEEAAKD
# Method: His-DNMT1 (182 kDa, human) was cloned, expressed and purified as described in Halby et al. (ChemBioChem 2012, 13, 157-65). The reaction was performed in a 10 μL total reaction volume in low volume NBS™ 384-well microplates (Corning), containing the tested compound (up to 1% DMSO), 1 μM of a SAM/[methyl-^3H] SAM (3 TBq/mmol, PerkinElmer) mix in a ratio of 3-to-1 (isotopic dilution 1*:3), 0.3 μM of biotinylated hemimethylated DNA duplex (5′-GATmCGCmCGATGmCGmCGAATmCGmCGATmCGATGmCGAT-3′ and BIOT-5′-[…]-3′), and 90 nM of DNMT1 in methylation buffer (20 mM HEPES pH 7.2, 1 mM EDTA, 50 mM KCl, 25 μg/mL BSA). The reaction was incubated at 37° C. for 2 hours. 8 μL are then transferred into a streptavidin 96-well scintillant coated Flashplate™ (PerkinElmer) containing 190 μL of 20 μM SAH in 50 mM Tris-HCl pH 7.4. The Flashplate™ was agitated at room temperature for 1 hour, washed three times with 200 μL of 0.05% Tween®-20 in 50 mM Tris-HCl pH 7.4, and read in 200 μL of 50 mM Tris-HCl pH 7.4 on TopCount NXT™ (PerkinElmer).
structure (smiles),measurement,setting,value
"COc1cc2c(NCCNc3cccc4ccccc34)nc(N3CCN(c4ccccc4)CC3)nc2cc1OCC1CCN(CCNc2ccnc3ccccc23)CC1 [F, N^1-(6-methoxy-2-(4-phenylpiperazin-1-yl)-7-((1-(2-(quinolin-4-ylamino)ethyl)piperidin-4-yl)methoxy)quinazolin-4-yl)-N^2-(naphtalen-1-yl)ethane-1,2-diamine]",inhibition at 0.1 µM,"[1]; compound at 0.1 μM, read-out: % proliferation inhibition 0.1 μM",2%
same,inhibition at 1 µM,"[1]; compound at 1 μM, read-out: % proliferation inhibition 1 μM",31.9%
same,inhibition at 5 µM,"[1]; compound at 5 μM, read-out: % proliferation inhibition 5 μM",99.6%
same,inhibition at 10 µM,"[1]; compound at 10 μM, read-out: % proliferation inhibition 10 μM",99.9%
same,"Reactivation fold of luciferase gene reporter, 0.1 μM",[2]; compound at 0.1 μM,1.1 ± 0.0 fold
same,"Reactivation fold of luciferase gene reporter, 1 μM",[2]; compound at 1 μM,4.4 ± 0.4 fold
same,"Reactivation fold of luciferase gene reporter, 5 μM",[2]; compound at 5 μM,1.0 ± 0.8 fold
same,"Reactivation fold of luciferase gene reporter, 10 μM",[2]; compound at 10 μM,0.0 ± 0.0 fold
same,inhibition at 1 µM,[3]; compound at 1 μM,75%
same,inhibition at 3.2 µM,[3]; compound at 3.2 μM,84%
same,EC50,[4],11.7 µM
same,inhibition at 10 µM,[4]; compound at 10 μM,45%
same,inhibition at 32 µM,[4]; compound at 32 μM,93%
same,melting point,,180 to 181 °C
